Measured values from BindingDB's records for patent USRE49080 (Novartis AG, 2022).

Biological target: T1, Sodium/glucose cotransporter 2 (Homo sapiens, UniProt P31639)
T1 sequence (P31639 whole entry): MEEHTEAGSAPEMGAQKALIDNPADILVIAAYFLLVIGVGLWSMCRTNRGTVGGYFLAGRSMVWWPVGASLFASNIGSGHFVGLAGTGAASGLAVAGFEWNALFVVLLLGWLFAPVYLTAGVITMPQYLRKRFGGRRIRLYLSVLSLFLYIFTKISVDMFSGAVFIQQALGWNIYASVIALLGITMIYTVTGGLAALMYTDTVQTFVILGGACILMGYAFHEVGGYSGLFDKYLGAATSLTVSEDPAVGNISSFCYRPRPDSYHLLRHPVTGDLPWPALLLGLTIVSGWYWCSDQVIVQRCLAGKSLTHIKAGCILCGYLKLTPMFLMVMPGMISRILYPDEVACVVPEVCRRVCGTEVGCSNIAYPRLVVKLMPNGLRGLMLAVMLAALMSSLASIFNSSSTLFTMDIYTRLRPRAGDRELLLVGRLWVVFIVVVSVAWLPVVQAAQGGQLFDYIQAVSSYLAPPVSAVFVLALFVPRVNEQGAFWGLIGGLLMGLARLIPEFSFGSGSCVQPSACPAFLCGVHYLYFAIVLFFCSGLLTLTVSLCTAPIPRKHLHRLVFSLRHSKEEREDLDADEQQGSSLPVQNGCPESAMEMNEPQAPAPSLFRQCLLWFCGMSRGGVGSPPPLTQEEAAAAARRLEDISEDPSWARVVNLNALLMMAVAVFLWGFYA
Experiment: Inhibitory Effect on the Sodium-dependent Glucose Co-Transporter SGLT, SGLT1 and SGLT2
Experimental: The SGLT-2 assay is carried out as follows: CHO-hSGLT2 cells are cultivated in Ham's F12 Medium (BioWhittaker) with 10% foetal calf serum and 250 μg/mL zeocin (Invitrogen), and HEK293-hSGLT2 cells are cultivated in DMEM medium with 10% foetal calf serum and 250 μg/mL zeocin (Invitrogen). The cells are detached from the culture flasks by washing twice with PBS and subsequently treating with trypsin/EDTA. After the addition of cell culture medium the cells are centrifuged, resuspended in culture medium and counted in a Casy cell counter. Then 40,000 cells per well are seeded into a white, 96-well plate coated with poly-D-lysine and incubated overnight at 37° C., 5% CO2. […] 250 μl of assay buffer and 5 μl of test compound are then added to each well and the plate is incubated for a further 15 minutes in the incubator. 5 μl of 10% DMSO are used as the negative control. The reaction is started by adding 5 μl of 14 C-AMG (0.05 μCi) to each well. After 2 hours' incubation at 37° C., 5% CO2, the cells are washed again with 250 μl of PBS ([…]) and then lysed by the addition of 25 μl of 0.1 N NaOH (5 min. at 37° C.). 200 μl of MicroScint20 (Packard) are added to each well and incubation is continued for a further 20 min at 37° C.

IC50: 1.4 nM
Compound: CN1CCOc2ccc(Cc3cc([C@@H]4O[C@H](CO)[C@@H](O)[C@H](O)[C@H]4O)ccc3Cl)cc21 [USRE49080, Example 11]
